{
  "source": "patent US20010002251A1",
  "about": "“Intracellular sensitizers for sonodynamic therapy” (Pharmacyclics, Inc., priority 1998, published 2001)",
  "key": {"[1]": {"test_system": "murine leukemia L1210 cells", "assay": "Amino acid (cytoleucine) transport after ultrasound in L1210 cells", "assay_type": "cell-based", "settings": "6 μM sensitizer, 15 min loading at 37° C., only intracellular texaphyrin; ultrasound 1.94 MHz, 3.9 W/cm^2", "method": "(§1) The effect of low-level, non-thermal ultrasound on the murine leukemia L1210 cell line in culture, measuring ultrasound-induced cytotoxicity is determined by a modification of the procedure initially described by Kessel et al., 1994. Int. J. Radiat. Biol., 66 (1994). Sonodynamic therapy with and without a texaphyrin and with and without low intensity irradiation of ultrasound. A murine 1210 cell line was used, The cytotoxicity of low-intensity ultrasound on murine leukemia L1210 cells is associated with cell fragmentation, and was detected by measuring the inhibition of the active transport of a non-metabolized amino acid (cytoleucine) and by a viability assay.\n(§2) Cell Culture Systems—Murine leukemia L1210 cells were grown in Fischer's medium (GIBCO, Grand Island, N.Y.) supplemented with glutamine, 10% horse serum and gentamicin. All operations were carried out at 37° C. […]\nAmino Acid Transport—The effect of ultrasound on the capacity of L1210 cells for concentrative accumulation of the non-metabolized amino-acid cytoleucine was assesed as a probe for damage to membrane […] systems. […] After 15 minutes, the cells were collected by centrifugation, washed with isotonic NaCl and cell radioactivity determined by liquid scintillation counting. […]"}, "[2]": {"test_system": "murine leukemia L1210 cells", "assay": "Cell fragmentation after ultrasound (Coulter particle size distribution)", "assay_type": "cell-based", "settings": "6 μM sensitizer, 15 min loading at 37° C., only intracellular texaphyrin; ultrasound 1.94 MHz, 3.9 W/cm^2", "method": "as §1, §2\n(§3) Fragmentation and Viability Studies—Cell counts and the particle size distribution were determined with a Coulter Electronics ZM Particle Analyzer and Model 256 Channelyzer. The Channelyzer determines the mean particle volume; intact cells were detected in channels 80-110. […] Cell counts were again determined after incubation for sufficient time to allow the number of control (untreated) cells to reach 20,000/ml, approximately 5 doublings."}, "[3]": {"test_system": "murine leukemia L1210 cells", "assay": "Viability (growth) assay after ultrasound", "assay_type": "cell-based", "settings": "for Viability: 6 μM sensitizer, 15 min loading at 37° C., only intracellular texaphyrin, ultrasound 1.94 MHz, 3.9 W/cm^2; for potentiation of the cytotoxic effect of ultrasound: cells previously exposed to 6 μM, ultrasound at 3.9 W/cm", "method": "as §1\nCell Culture Systems—Murine leukemia L1210 cells were grown in Fischer's medium (GIBCO, Grand Island, N.Y.) supplemented with glutamine, 10% horse serum and gentamicin. All operations were carried out at 37° C. Exponentially growing cells were collected by centrifugation, resuspended (5×10^6 cells/ml) in serum-free Fischer's medium buffered to pH 7.0 with 20 mM HEPES.\nSensitizers—Lutetium Texaphyrin (Lu-Tex or PCI-0123) and Gadolinium Texaphyrin (Gd-Tex or PCI-0120) were dissolved in water at a concentration of 6 μM.\nTest Groups—Four groups of cells were established: Control A (no sensitizer and no ultrasound), Control B (no sensitizer, with ultrasound); 6 μM Lu-Tex with ultrasound, and 6 μM Gd-Tex with ultrasound. A small volume of the respective sensitizers were added to the Lu-Tex and Gd-Tex groups followed by a loading incubation of 15 minutes at 37° C. The cells were then suspended in fresh (serum free) medium, such that only intracellular texaphyrin remained.\nUltrasound—Exposure of cell suspensions (except Control A) to ultrasound was carried out in 2.5 cm diameter petri dishes in a bath of degassed water. A 2.54-cm-diameter transducer (Valpey-Fisher) was driven by a power amplifier (ENI 240L) with a continuous wave 1.94 MHz sinusoidal signal source (Wavetek Model 23). The acoustic field was calibrated with a Marconi PVDF membrane hydrophone in a free field condition 3.0 cm from the surface of the transducer which is also the distance from the face to the exposure dish. The acoustic intensity, expressed in terms of the spatial peak temporal average (SPTA), was 3.9 W/cm^2.\nas §3, with “80-110. Smaler particles represent debris resulting from cell fragmentation.” for “80-110.”"}, "Colon 26 tumor cells": {"test_system": "Colon 26 tumor cells", "assay": "Experimental kidney tumor assay of sonodynamic sensitizing activity", "assay_type": "in vivo, mouse", "settings": "1.0 mg/kg i.v., ultrasound 24 hours later, 5 minutes, 0.5 and 1 MHz, 8 W/cm^2; sacrifice after 7 days", "method": "In vivo activity for sonodynamic therapy is determined, e.g., by post-mortum histological examination of tumor tissue by hematoxylin and eosin, as described in Yumita et al., Cancer Letters 112 (1997). The antitumor effects of sonodynamic therapy are evaluated by implanting tumor cells into one kidney in a mouse (the other kidney remaining untreatd and serving as a control). Approximately 24 hours after intravenous administration of a sonodynamic sensitizer to be tested, the mouse is anesthesized and the tumorous kidney exteriorized. The position and the angle of the mouse are adjusted to facilitate ultrasound ultrasound penetration of the entire kidney, with the tumor at the focal spot. Ultrasound is delivered in continuous waves by a focused array transducer, the kidney is returned to the abdominal cavity and the abdomen is closed. After 7 days the mouse is sacrificed and the kidneys stained with hematoxylin and eosin for histologic examination. The tumor bearing and control kidneys are compared.\nThis procedure is a modification of a procedure initially described by Yumita et al., Cancer Letters 112 (1997).\nColon 26 tumor cells are implanted into one kidney in a male CDF mouse (the other kidney remaining untreated and serving as a control). After 14 days, 1.0 mg/kg of a texaphyrin is administered by intravenous injection. 24 Hours later, the mouse is anesthetized and the tumorous kidney exteriorized. The position and the angle of the mouse are adjusted to facilitate ultrasound ultrasound penetration of the entire kidney, with the tumor at the focal spot. Ultrasound is delivered in continuous waves by a focused array transducer. The tumor is exposed to focused ultrasound for 5 minutes in a progressive wave mode, at a frequency of 0.5 MHz for the first wave and 1 MHz for the second wave, at an intensity of 8 W/cm^2 followed by the second-harmonic superimposition of ultrasound at the same intensity, for a total exposure of 5 minutes. The kidney is returned to the abdominal cavity and the abdomen is closed. […]"}, "[4]": {"assay": "Maximum tolerated dose study", "assay_type": "in vivo", "settings": "determined in one study; intravenous injection", "method": "For example, Lutetium Texaphyrin is administered in solution containing 2 mg/ml optionally in 5% mannitol, USP. Dosages of about 1.0 or 2.0 mg/kg to about 4.0 or 5.0 mg/kg, preferably 3.0 mg/kg may be employed, up to a maximum tolerated dose that was determined in one study to be 5.2 mg/kg. The texaphyrin is administered by intravenous injection, followed by a waiting period of from as little as several minutes or about 3 hours to as long as about 72 or 96 hours (depending on the treatment being effected) to facilitate intracellular uptake and clearance from the plasma and extracellular matrix prior to the administration of the sonodynamic agent. The co-administration of a sedative (e.g., benzodiazapenes) and narcotic analgesic are sometimes recommended prior to topical (as opposed to intravascular) light treatment. Topical administration. of Emla cream (lidocaine, 2.5% and prilocaine, 2.5%) under an occlusive dressing and other intradermal, subcutaneous and topical anesthetics may also be employed as necessary to reduce discomfort. Similar patient comfort considerations may apply in sonodynamic therapy, as will be apparent to the treating physician. Subsequent treatments can be provided after suitable time interval, currently approximately 21 days. […]"}},
  "data": [
    {"molecule": "CC(=O)[O-].CC(=O)[O-].CCc1c(CC)c2cc3nc(cnc4cc(OCCOCCOCCOC)c(OCCOCCOCCOC)cc4ncc4nc(cc1[n-]2)C(CCCO)=C4C)C(C)=C3CCCO.O.[Gd+3]", "note": "[Gd-Tex, Gadolinium Texaphyrin]", "values": [
      {"measurement": "Amount of Cytoleucene Transported", "setting": "[1]", "value": "3.2 ± 0.4"},
      {"measurement": "Fragmentation", "setting": "[2]", "value": "64 ± 4"},
      {"measurement": "Viability", "setting": "[3]", "value": "42 ± 5"},
      {"measurement": "potentiation of the cytotoxic effect of ultrasound", "setting": "[3]", "value": "substantial potentiation"},
      {"measurement": "comparison of tumor-bearing and control kidneys (histologic examination)", "setting": "Colon 26 tumor cells", "value": "substantially the same"}
    ]},
    {"molecule": "CC(=O)[O-].CC(=O)[O-].CCc1c(CC)c2cc3nc(cnc4cc(OCCOCCOCCOC)c(OCCOCCOCCOC)cc4ncc4nc(cc1[n-]2)C(CCCO)=C4C)C(C)=C3CCCO.O.[Lu+3]", "note": "[Lu-Tex, Lutetium Texaphyrin]", "values": [
      {"measurement": "Amount of Cytoleucene Transported", "setting": "[1]", "value": "2.8 ± 0.3"},
      {"measurement": "Fragmentation", "setting": "[2]", "value": "73 ± 6"},
      {"measurement": "Viability", "setting": "[3]", "value": "24 ± 3"},
      {"measurement": "potentiation of the cytotoxic effect of ultrasound", "setting": "[3]", "value": "substantial potentiation"},
      {"measurement": "maximum tolerated dose", "setting": "[4]", "value": 5.2, "unit": "mg/kg"},
      {"measurement": "comparison of tumor-bearing and control kidneys (histologic examination)", "setting": "Colon 26 tumor cells", "value": "substantially the same"}
    ]},
    {"molecule": "yttrium texaphyrin", "values": [
      {"measurement": "comparison of tumor-bearing and control kidneys (histologic examination)", "setting": "Colon 26 tumor cells", "value": "substantially the same"}
    ]}
  ]
}
